Reference: ChEMBL document CHEMBL4828704, “Efophylins A and B, Two C2-Asymmetric Macrodiolide Immunosuppressants from Streptomyces malaysiensis” (J Nat Prod, 2021)
Active and inactive are the calls of the source. The calls are words filed in the database; no cut-off is given here.

Columns and labels:
Splenocyte [1] = assay: Cytotoxicity against BALB/c mouse splenocyte assessed as reduction in cell viability measured after 72 hrs by CCK-8 assay; assay type: cell-based
Splenocyte [2] = assay: Immunosuppressive activity in C57BL/6 mouse splenocyte assessed as inhibition of mixed lymphocyte reaction when cocultured with mitomycin-C pretreated BALB/c mouse splenocyte measured up to 72 hrs by CCK-8 assay; assay type: functional, cell-based; conditions: C57BL/6, Splenocyte
T-cell [3] = assay: Inhibition of ConA-induced IL-2 expression in BALB/c mouse T-lymphocyte measured after 24 hrs by ELISA; assay type: functional, tissue-based
[4] = Inhibition of ConA-induced proliferation of BALB/c mouse splenocyte measured after 72 hrs by CCK-8 assay; assay type: functional, tissue-based
Splenocyte [5] = assay: Inhibition of NFAT activation in BALB/c mouse splenocyte at 5 to 30 uM by immunoblotting analysis; assay type: tissue-based; conditions: dose 5-30 µM
T-cell [6] = assay: Inhibition of ConA-induced IL-2 expression in BALB/c mouse T-lymphocyte at 40 uM measured after 24 hrs by ELISA; assay type: functional, tissue-based
[7] = molecular target: Calcineurin subunit B type 1 (Homo sapiens, UniProt P63098); assay: Inhibition of CNB (unknown origin) using p-NPP as substrate preincubated for 10 mins followed by substrate addition by spectrophotometry analysis
Splenocyte [8] = assay: Inhibition of NFAT phosphorylation in BALB/c mouse splenocyte at 5 to 30 uM by immunoblotting analysis; assay type: tissue-based; conditions: dose 5-30 µM

Chain of Calcineurin subunit B type 1 (P63098 2-170 limits assumed): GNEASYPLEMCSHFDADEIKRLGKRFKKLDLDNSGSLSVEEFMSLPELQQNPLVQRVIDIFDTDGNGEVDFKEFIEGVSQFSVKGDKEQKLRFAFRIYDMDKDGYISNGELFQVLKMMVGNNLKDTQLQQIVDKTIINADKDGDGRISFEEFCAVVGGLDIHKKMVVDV

IC50 [7] [µM] | inhibition [7] | SMILES | IC50 (Splenocyte [1]) [µM] | IC50 (Splenocyte [2]) [µM] | inhibition (T-cell [3]) | IC50 [4] [µM] | inhibition (Splenocyte [5]) | inhibition (T-cell [6]) | inhibition (Splenocyte [8])
24 |  | CC[C@@H]1[C@@H](C)O[C@@](OC)([C@@H](C)[C@H](O)[C@H](C)[C@H]2OC(=O)/C=C/C=C/[C@H](C)[C@@H]([C@@H](C)[C@@H](O)[C@H](C)C(O)/C=C/[C@H](CC)[C@@H](C)O)OC(=O)/C=C/C=C/[C@@H]2C)C[C@H]1O[C@H]1C[C@H](O)[C@H](O)[C@H](C)O1 (some centres undefined) | 49 | 27.9 | Dose-Dependent Effect | 24.6 | Active | Active | Active
 | inactive | CC[C@@H]1[C@@H](C)O[C@@](O)([C@@H](C)[C@H](O)[C@H](C)[C@H]2OC(=O)/C=C/C=C/[C@H](C)[C@@H]([C@@H](C)[C@@H](O)[C@H](C)C(O)/C=C/[C@H](CC)[C@@H](C)O)OC(=O)/C=C/C=C/[C@@H]2C)C[C@H]1O[C@H]1C[C@H](O)[C@H](O)[C@H](C)O1 (some centres undefined) |  |  |  |  |  |  | 
